Data published in ChEMBL document CHEMBL5579843, “Multimechanism biological profiling of tetrahydro-β-carboline analogues as selective HDAC6 inhibitors for the treatment of Alzheimer's disease” (Eur J Med Chem, 2024).
Activity calls are given as the source filed them. The calls are words filed in the database; no cut-off is given here.

Tests used:
[1] = Antioxidant activity assessed as ABTS radical scavenging activity measured after 30 mins by absorbance based analysis; format: functional
[2] = Antioxidant activity assessed as DPPH scavenging activity incubated for 0.5 hrs by absorbance based assay; format: functional
[3] = organism: Danio rerio; assay: Cognitive improvement ability in scopolamine induced zebrafish alzheimer disease model assessed as improvement in motor activity by measuring increase in total distance of swimming at 20 mg/L pretreated with scopolamine for 30 mins followed by compound addition for 3 mins by T-maze test; format: functional, organism-based
[4] = Neurotoxicity against rat PC-12 cells assessed as reduction in cell viability at 10 uM measured after 24 hrs by MTT assay; format: toxicity, cell-based; conditions: pc-12, 24 h
[5] = Neurotoxicity against human SH-SY5Y cells assessed as reduction in cell viability at 10 uM measured after 24 hrs by MTT assay; format: toxicity, cell-based
[6] = system: SH-SY5Y; assay: Neuroprotective activity against H2O2-induced oxidative damage in human SH-SY5Y cells assessed as increase in cell survival at 10 uM pretreated for 4 hrs followed by 200 uM H2O2 stimulation and measured after 24 hrs by MTT assay; format: functional, cell-based; conditions: time 28.0 hrs
[7] = system: PC-12; assay: Neuroprotective activity against H2O2-induced oxidative damage in rat PC-12 cells assessed as increase in cell survival at 10 uM pretreated for 4 hrs followed by 800 uM H2O2 stimulation and measured after 24 hrs by MTT assay; format: functional, cell-based; conditions: time 28.0 hrs
[8] = target: T1, Protein deacetylase HDAC6 (Homo sapiens, UniProt Q9UBN7); assay: Inhibition of HDAC6 (unknown origin)
T1 sequence (Q9UBN7 whole entry): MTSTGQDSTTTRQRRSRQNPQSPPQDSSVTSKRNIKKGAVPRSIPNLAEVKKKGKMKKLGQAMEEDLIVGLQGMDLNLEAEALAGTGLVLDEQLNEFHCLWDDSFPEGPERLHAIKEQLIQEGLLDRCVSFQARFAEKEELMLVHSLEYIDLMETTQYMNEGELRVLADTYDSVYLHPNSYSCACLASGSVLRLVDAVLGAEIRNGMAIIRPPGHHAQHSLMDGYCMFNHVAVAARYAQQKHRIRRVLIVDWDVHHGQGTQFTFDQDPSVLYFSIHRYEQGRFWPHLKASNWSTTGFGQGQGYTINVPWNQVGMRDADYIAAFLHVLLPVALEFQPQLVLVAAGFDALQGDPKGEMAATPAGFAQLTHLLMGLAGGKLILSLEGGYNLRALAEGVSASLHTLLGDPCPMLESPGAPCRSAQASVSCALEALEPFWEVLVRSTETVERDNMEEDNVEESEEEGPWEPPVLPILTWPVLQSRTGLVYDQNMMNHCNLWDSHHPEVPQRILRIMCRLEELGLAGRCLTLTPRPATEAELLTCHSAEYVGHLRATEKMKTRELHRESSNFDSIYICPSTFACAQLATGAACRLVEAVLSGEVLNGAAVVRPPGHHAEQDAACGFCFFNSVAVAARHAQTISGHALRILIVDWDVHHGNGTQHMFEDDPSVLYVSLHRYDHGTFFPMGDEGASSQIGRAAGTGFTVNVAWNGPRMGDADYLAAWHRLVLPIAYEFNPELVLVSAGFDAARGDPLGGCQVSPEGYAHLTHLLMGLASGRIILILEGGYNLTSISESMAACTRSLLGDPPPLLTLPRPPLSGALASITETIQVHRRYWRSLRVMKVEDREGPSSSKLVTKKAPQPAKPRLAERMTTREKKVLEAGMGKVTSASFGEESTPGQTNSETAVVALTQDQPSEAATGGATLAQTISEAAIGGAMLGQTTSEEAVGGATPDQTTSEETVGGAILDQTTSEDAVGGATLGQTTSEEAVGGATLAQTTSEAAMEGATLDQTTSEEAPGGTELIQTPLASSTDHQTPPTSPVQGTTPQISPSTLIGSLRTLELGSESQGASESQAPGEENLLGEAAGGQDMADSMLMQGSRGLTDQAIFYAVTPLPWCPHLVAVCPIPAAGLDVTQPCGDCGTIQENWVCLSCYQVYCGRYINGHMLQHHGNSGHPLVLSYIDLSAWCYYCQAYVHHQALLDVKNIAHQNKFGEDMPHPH

[9] = target: Histone deacetylase 1 (Homo sapiens, UniProt Q13547); assay: Inhibition of HDAC1 (unknown origin)
Chain of Histone deacetylase 1 (Q13547 whole entry): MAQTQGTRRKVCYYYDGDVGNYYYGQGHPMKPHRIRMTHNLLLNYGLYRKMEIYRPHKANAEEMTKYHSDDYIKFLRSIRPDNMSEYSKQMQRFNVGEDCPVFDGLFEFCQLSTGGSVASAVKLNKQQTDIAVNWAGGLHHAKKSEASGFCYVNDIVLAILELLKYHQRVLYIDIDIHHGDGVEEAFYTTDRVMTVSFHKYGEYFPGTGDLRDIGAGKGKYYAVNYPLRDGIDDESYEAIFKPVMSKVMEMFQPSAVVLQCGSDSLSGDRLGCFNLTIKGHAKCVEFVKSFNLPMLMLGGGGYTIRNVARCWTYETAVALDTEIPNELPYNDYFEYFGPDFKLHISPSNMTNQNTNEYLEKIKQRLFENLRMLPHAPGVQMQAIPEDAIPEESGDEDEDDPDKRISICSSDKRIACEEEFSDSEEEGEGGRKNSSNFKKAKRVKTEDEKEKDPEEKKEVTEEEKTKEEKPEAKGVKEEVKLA

[10] = Neurotoxicity against human SH-SY5Y cells assessed as cell survival rate at 10 uM measured after 24 hrs by MTT assay relative to control; format: toxicity, cell-based; conditions: read-out: Survival
[11] = Neurotoxicity against rat PC-12 cells assessed as cell survival rate at 10 uM measured after 24 hrs by MTT assay relative to control; format: toxicity, cell-based; conditions: read-out: Survival
[12] = system: SH-SY5Y; assay: Neuroprotective activity against H2O2-induced oxidative damage in human SH-SY5Y cells assessed as increase in cell survival pretreated for 4 hrs followed by 200 uM H2O2 stimulation and measured after 24 hrs by MTT assay; format: functional, cell-based; conditions: dose 1-10 µM, time 28.0 hrs
[13] = system: SH-SY5Y; assay: Neuroprotective activity against 6-OHDA-induced oxidative damage in human SH-SY5Y cells assessed as increase in cell survival at 1 to 10 uM pretreated for 4 hrs followed by 100 uM 6-OHDA stimulation and measured after 24 hrs by MTT assay; format: functional, cell-based; conditions: dose 1-10 µM, time 28.0 hrs
[14] = system: PC-12; assay: Neuroprotective activity against H2O2-induced oxidative damage in rat PC-12 cells assessed as SOD activity at 10 uM pretreated for 4 hrs followed by H2O2 stimulation and measured after 24 hrs by WST-8 assay; format: functional; conditions: time 28 hrs
[15] = system: PC-12; assay: Neuroprotective activity against H2O2-induced oxidative damage in rat PC-12 cells assessed as increase in catalase protein expression at 10 uM pretreated for 4 hrs followed by H2O2 stimulation and measured after 24 hrs by Western blot analysis; format: functional, cell-based; conditions: time 28.0 hrs
[16] = system: PC-12; assay: Neuroprotective activity against H2O2-induced oxidative damage in rat PC-12 cells assessed as increase in Nrf2 protein expression at 10 uM pretreated for 4 hrs followed by H2O2 stimulation and measured after 24 hrs by Western blot analysis; format: functional, cell-based; conditions: time 28.0 hrs
[17] = system: PC-12; assay: Neuroprotective activity against H2O2-induced oxidative damage in rat PC-12 cells assessed as increase in cell survival pretreated for 4 hrs followed by 800 uM H2O2 stimulation and measured after 24 hrs by MTT assay; format: functional, cell-based; conditions: dose 1-10 µM, time 28.0 hrs
[18] = system: PC-12; assay: Neuroprotective activity against 6-OHDA-induced oxidative damage in rat PC-12 cells assessed as increase in cell survival at 1 to 10 uM pretreated for 4 hrs followed by 500 uM 6-OHDA stimulation and measured after 24 hrs by MTT assay; format: functional, cell-based; conditions: dose 1-10 µM, time 28.0 hrs

O=C(NO)c1ccc(CN2CCc3[nH]c4ccc(F)cc4c3C2)cc1
IC50 [1]: 9.96 µM
IC50 [2]: 21 µM

COc1ccc2c3c1O[C@H]1C[C@@H](O)C=C[C@@]31CCN(C)C2
Activity [3]: Active

O=C(CCCCCCC(=O)N1CCc2c([nH]c3ccccc23)C1)NO
Activity [4]: Toxic
Activity [5]: Toxic

O=C(NO)c1ccc(CC(=O)N2CCc3c([nH]c4ccccc34)C2)cc1
Activity [6]: inactive
IC50 [1]: 13.8 µM
IC50 [2]: 30.3 µM
Activity [7]: inactive

O=C(NO)c1ccc(CN2CCc3c([nH]c4ccccc34)C2)cc1
IC50 [8]: 0.0138 µM
IC50 [1]: 11.4 µM
IC50 [9]: 16.5 µM
IC50 [2]: 35.6 µM

O=C(NO)c1ccc(CNC(=O)[C@@H]2Cc3c([nH]c4ccccc34)[C@@H](c3ccc(Cl)cc3)N2CC2CC2)cc1
IC50 [9]: 0.494 µM

COc1ccc2[nH]c3c(c2c1)CCN(Cc1ccc(C(=O)NO)cc1)C3
IC50 [8]: 0.0164 µM
IC50 [1]: 12.6 µM
IC50 [9]: 23.7 µM
IC50 [2]: 29.1 µM

Cc1ccc2[nH]c3c(c2c1)CN(Cc1ccc(C(=O)NO)cc1)CC3
IC50 [1]: 9.97 µM
IC50 [2]: 28.2 µM

O=C(NO)c1cccc(CN2CCc3[nH]c4ccccc4c3C2)c1
IC50 [1]: 16.9 µM
IC50 [2]: 24.3 µM

O=C(/C=C/c1ccc(CN2CCc3[nH]c4ccccc4c3C2)cc1)NO
Activity [4]: Toxic
Activity [5]: Toxic

O=C(CCCCCCC(=O)Nc1ccccc1)NO [VORINOSTAT]
viability at 24 h, 10 µM [10]: < 80%
viability at 24 h, 10 µM [11]: < 80%

COc1ccc2[nH]c3c(c2c1)CCN(Cc1ccc(/C=C/C(=O)NO)cc1)C3
IC50 [8]: 0.0197 µM
IC50 [9]: 0.0108 µM
Activity [4]: Toxic
Activity [5]: Toxic

O=C(NO)c1ccc(C2c3[nH]c4ccccc4c3CCN2Cc2ccccc2)cc1 (centres undefined)
IC50 [8]: > 1 µM

O=C1O[C@H]([C@@H](O)CO)C(O)=C1O [ASCORBIC ACID]
IC50 [1]: 25.5 µM
IC50 [2]: 23.8 µM

O=C(NO)c1ccc(CN2CCc3[nH]c4ccccc4c3C2)cc1
IC50 [1]: 17.2 µM
IC50 [2]: 26.5 µM

O=C(NO)c1ccc(C2NCCc3c2[nH]c2ccccc32)cc1 (centres undefined)
IC50 [8]: > 1 µM

CN1CCc2c(c3ccccc3n2Cc2ccc(C(=O)NO)cc2)C1 [TUBASTATIN A]
Activity [12]: Dose-Dependent Effect
Activity [13]: Active
Activity [14]: 13.7 U/mg
Activity [15]: Active
Activity [16]: Active
Activity [17]: Dose-Dependent Effect
Activity [18]: Active
IC50 [1]: 12.1 µM
IC50 [2]: 28.2 µM

O=C(CCCCCC(=O)N1CCc2c([nH]c3ccccc23)C1)NO
Activity [6]: inactive
IC50 [1]: 14.4 µM
IC50 [2]: 28.4 µM
Activity [7]: inactive
